Experimental data from US7632833B2, “Mitotic kinesin inhibitors” (Merck & Co., Inc., priority 2004, dated 2009).
Where two headings read alike, the source gives them in different places.

Biological target: T1, human poly-histidine tagged KSP motor domain (KSP(367H)) (Homo sapiens, UniProt P52732)
T1 construct: were used to amplify the motor domain and the neck linker region; made in house; host or cells: E. coli BL21 (DE3), vector pRSETa
T1 sequence (P52732 18-359 limits assumed): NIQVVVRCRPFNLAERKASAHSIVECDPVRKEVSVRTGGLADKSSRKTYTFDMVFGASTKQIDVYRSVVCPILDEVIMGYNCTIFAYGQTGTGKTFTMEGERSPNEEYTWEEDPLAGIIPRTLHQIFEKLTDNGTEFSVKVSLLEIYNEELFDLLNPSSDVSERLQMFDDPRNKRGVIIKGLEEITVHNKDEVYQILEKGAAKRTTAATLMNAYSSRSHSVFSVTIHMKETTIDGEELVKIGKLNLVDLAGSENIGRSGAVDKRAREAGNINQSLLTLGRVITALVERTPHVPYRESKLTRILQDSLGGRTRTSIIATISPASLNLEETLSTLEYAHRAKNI
Assay: Kinesin ATPase In Vitro Assay
Assay type: biochemical
Procedure: I. Kinesin ATPase In Vitro Assay
The N-terminal primer 5′-[…] (SEQ. ID. NO.: 1) and the C-terminal primer 5′-[…] […] (SEQ. ID. NO.: 2)
were used to amplify the motor domain and the neck linker region. The PCR products were digested with AseI and XhoI, ligated into the NdeI/XhoI digestion product of pRSETa (Invitrogen) and transformed into E. coli BL21 (DE3).
Cells were grown at 37° C. to an OD600 of 0.5. After cooling the culture to room temperature expression of KSP was induced with 100 μM IPTG and incubation was continued overnight. Cells were pelleted by centrifugation and washed once with ice-cold PBS. Pellets were flash-frozen and stored −80° C.
Protein Purification: Cell pellets were thawed on ice and resuspended in lysis buffer (50 mM K-HEPES, pH 8.0, 250 mM KCl, 0.1% Tween, 10 mM imidazole, 0.5 mM Mg-ATP, 1 mM PMSF, 2 mM benzimidine, 1× complete protease inhibitor cocktail (Roche)). Cell suspensions were incubated with 1 mg/ml lysozyme and 5 mM β-mercaptoethanol on ice for 10 minutes, followed by sonication (3×30 sec). All subsequent procedures were performed at 4° C. Lysates were centrifuged at 40,000×g for 40 minutes. Supernatants were diluted and loaded onto an SP Sepharose column (Pharmacia, 5 ml cartridge) in buffer A (50 mM K-HEPES, pH 6.8, 1 mM MgCl2, 1 mM EGTA, 10 μM Mg-ATP, 1 mM DTT) and eluted with a 0 to 750 mM KCl gradient in buffer A. Fractions containing KSP were pooled and incubated with Ni-NTA resin (Qiagen) for one hour. The resin was washed three times with buffer B (Lysis buffer minus PMSF and protease inhibitor cocktail), followed by three 15-minute incubations and washes with buffer B. Finally, the resin was incubated and washed for 15 minutes three times with buffer C (same as buffer B except for pH 6.0) and poured into a column. KSP was eluted with elution buffer (identical to buffer B except for 150 mM KCl and 250 mM imidazole). KSP-containing fractions were pooled, made 10% in sucrose, and stored at −80° C.
Microtubules are prepared from tubulin isolated from bovine brain. Purified tubulin (>97% MAP-free) at 1 mg/ml is polymerized at 37° C. in the presence of 10 μM paclitaxel, 1 mM DTT, 1 mM GTP in BRB80 buffer (80 mM K-PIPES, 1 mM EGTA, 1 mM MgCl2 at pH 6.8). The resulting microtubules are separated from non-polymerized tubulin by ultracentrifugation and removal of the supernatant. The pellet, containing the microtubules, is gently resuspended in 10 μM paclitaxel, 1 mM DTT, 50 μg/ml ampicillin, and 5 μg/ml chloramphenicol in BRB80.
The kinesin motor domain is incubated with microtubules, 1 mM ATP (1:1 MgCl2: Na-ATP), and compound at 23° C. in buffer containing 80 mM K-HEPES (pH 7.0), […], 1 mM DTT, 1 mM MgCl2, and 50 mM KCl. The reaction is terminated by a 2-10 fold dilution with a final buffer composition of 80 mM HEPES and 50 mM EDTA. […] The reaction is incubated for 10 minutes at 23° C., and the absorbance of the phospho-molybdate complex is measured at 540 nm.

[1] = (3R,4R) enantiomeric form tested, kinesin motor domain with microtubules, 1 mM ATP, 23° C., free phosphate by quinaldine red/ammonium molybdate, read-out: IC50

SMILES	IC50 [1] [µM]	IC50 [µM]
CC(=O)C1=NN2c3cc(F)ccc3OCC2C1(CCCN1CCNCC1)c1ccccc1 [Compound 4-23, (3R,4R) 1-[8-fluoro-3-phenyl-3-(3-piperazin-1-ylpropyl)-3a,4-dihydro-3H-pyrazolo[5,1-c][1,4]benzoxazin-2-yl]ethanone]	–	≤ 30
CC(=O)C1=NN2c3cc(F)ccc3OC[C@H]2[C@H]1c1ccccc1 [Compound 1-8a, (3R,4R)-1-(8-Fluoro-3-phenyl-3a,4-dihydro-3H-pyrazolo[5,1-c][1,4]benzoxazin-2-yl)ethanone]	–	≤ 30
CC(=O)C1=NN2c3cc(C)ccc3OCC2C1(CCCN(C)C)c1ccccc1 [Compound 4-18, (3R,4R) 1-{3-[3-(dimethylamino)propyl]-8-methyl-3-phenyl-3a,4-dihydro-3H-pyrazolo[5,1-c][1,4]benzoxazin-2-yl}ethanone]	–	≤ 30
CC(=O)C1=NN2c3cc(F)ccc3OCC2C1(CCCN1CCOCC1)c1ccccc1 [Compound 4-14, (3R,4R) 1-[8-fluoro-3-(3-morpholin-4-ylpropyl)-3-phenyl-3a,4-dihydro-3H-pyrazolo[5,1-c][1,4]benzoxazin-2-yl]ethanone]	–	≤ 30
CC(=O)C1=NN2c3cc(F)ccc3OCC2[C@@]1(CCCN1CC2C[C@@H]1CO2)c1ccccc1 (mixture of isomers) [Compound 4-15, (3R,4R) 1-{8-fluoro-3-[3-(2-oxa-5-azabicyclo[2.2.1]hept-5-yl)propyl]-3-phenyl-3a,4-dihydro-3H-pyrazolo[5,1-c][1,4]benzoxazin-2-yl}ethanone]	≤ 30	–
CC(=O)C1=NN2c3cc(F)ccc3OC[C@H]2[C@@]1(CCCN1CCN(C(=O)c2cc(C)on2)CC1)c1ccccc1 [Compound 4-35, 1-[(3R,4R)-8-fluoro-3-(3-{4-[(5-methylisoxazol-3-yl)carbonyl]piperazin-1-yl}propyl)-3-phenyl-3a,4-dihydro-3H-pyrazolo[5,1-c][1,4]benzoxazin-2-yl]ethanone]	≤ 30	–
CC(=O)NCCNCCC[C@]1(c2ccccc2)C(C(C)=O)=NN2c3cc(F)ccc3OC[C@H]21 [Compound 4-40, N-[2-({3-[(3R,4R)-2-acetyl-8-fluoro-3-phenyl-3a,4-dihydro-3H-pyrazolo[5,1-c][1,4]benzoxazin-3-yl]propyl}amino)ethyl]acetamide]	≤ 30	–
CC(=O)C1=NN2c3cc(F)ccc3OC[C@H]2[C@@]1(CCCN1CCC(=O)N(C)CC1)c1ccccc1 [Compound 4-38, 1-{3-[(3R,4R)-2-acetyl-8-fluoro-3-phenyl-3a,4-dihydro-3H-pyrazolo[5,1-c][1,4]benzoxazin-3-yl]propyl}-4-methyl-1,4-diazepan-5-one]	–	≤ 30

The remaining lines, values ahead:

IC50 [1] [µM]	IC50 [µM]	SMILES
≤ 30	–	CC(=O)C1=NN2c3cc(F)ccc3OC[C@H]2[C@@]1(CCCN1CCN(C(N)=O)CC1)c1ccccc1 [Compound 4-27, 4-{3-[(3R,4R)-2-acetyl-8-fluoro-3-phenyl-3a,4-dihydro-3H-pyrazolo[5,1-c][1,4]benzoxazin-3-yl]propyl}piperazine-1-carboxamide]
≤ 30	–	CC(=O)C1=NN2c3cc(F)ccc3OC[C@H]2[C@@]1(CCCN1CCN(C(=O)CO)CC1)c1ccccc1 [Compound 4-25, 1-{(3R,4R)-8-fluoro-3-[3-(4-glycoloylpiperazin-1-yl)propyl]-3-phenyl-3a,4-dihydro-3H-pyrazolo[5,1-c][1,4]benzoxazin-2-yl}ethanone]
≤ 30	–	CNC(=O)N1CCN(CCC[C@]2(c3ccccc3)C(C(C)=O)=NN3c4cc(F)ccc4OC[C@H]32)CC1 [Compound 4-28, 4-{3-[(3R,4R)-2-acetyl-8-fluoro-3-phenyl-3a,4-dihydro-3H-pyrazolo[5,1-c][1,4]benzoxazin-3-yl]propyl}-N-methylpiperazine-1-carboxamide]
≤ 30	–	CON(C)C(=O)C1=NN2c3cc(F)ccc3OC[C@H]2[C@@]1(CCCO)c1ccccc1 [Compound 4-11, (3R,4R) 8-fluoro-3-(3-hydroxypropyl)-N-methoxy-N-methyl-3-phenyl-3a,4-dihydro-3H-pyrazolo[5,1-c][1,4]benzoxazine-2-carboxamide]
≤ 30	–	COC(=O)C(=O)N1CCN(CCC[C@]2(c3ccccc3)C(C(C)=O)=NN3c4cc(F)ccc4OC[C@H]32)CC1 [Compound 4-31, methyl (4-{3-[(3R,4R)-2-acetyl-8-fluoro-3-phenyl-3a,4-dihydro-3H-pyrazolo[5,1-c][1,4]benzoxazin-3-yl]propyl}piperazin-1-yl)(oxo)acetate]
≤ 30	–	CC(=O)C1=NN2c3cc(F)ccc3OC[C@H]2[C@@]1(CCCN1CCN(C(=O)c2ccco2)CC1)c1ccccc1 [Compound 4-33, 1-((3R,4R)-8-fluoro-3-{3-[4-(2-furoyl)piperazin-1-yl]propyl}-3-phenyl-3a,4-dihydro-3H-pyrazolo[5,1-c][1,4]benzoxazin-2-yl)ethanone]
≤ 30	–	COCC(=O)N1CCN(CCC[C@]2(c3ccccc3)C(C(C)=O)=NN3c4cc(F)ccc4OC[C@H]32)CC1 [Compound 4-26, 1-((3R,4R)-8-fluoro-3-{3-[4-(methoxyacetyl)piperazin-1-yl]propyl}-3-phenyl-3a,4-dihydro-3H-pyrazolo[5,1-c][1,4]benzoxazin-2-yl)ethanone]
≤ 30	–	CC(=O)C1=NN2c3cc(F)ccc3OC[C@H]2[C@@]1(CCCN1CCN(C)C(=O)C1)c1ccccc1 [Compound 4-37, 4-{3-[(3R,4R)-2-acetyl-8-fluoro-3-phenyl-3a,4-dihydro-3H-pyrazolo[5,1-c][1,4]benzoxazin-3-yl]propyl}-1-methylpiperazin-2-one]
≤ 30	–	COC(=O)CC(=O)N1CCN(CCC[C@]2(c3ccccc3)C(C(C)=O)=NN3c4cc(F)ccc4OC[C@H]32)CC1 [Compound 4-32, methyl 3-(4-{3-[(3R,4R)-2-acetyl-8-fluoro-3-phenyl-3a,4-dihydro-3H-pyrazolo[5,1-c][1,4]benzoxazin-3-yl]propyl}piperazin-1-yl)-3-oxopropanoate]
